In the NIST ThermoML archive (doi:10.1021/je0340699):

Test: molar heat capacity at saturation pressure
Details: Liquid, Large sample (1 g) DSC

COC(C)(C)C [2-methoxy-2-methylpropane]
Details | molar heat capacity [J/K/mol]
277.15 K | 180.9
279.15 K | 181.4
281.16 K | 182.3
283.15 K | 183.1
285.15 K | 183.8
287.14 K | 184.4
289.16 K | 185.3
291.15 K | 186
293.16 K | 186.8
295.15 K | 187.7
297.14 K | 188.3
299.14 K | 189
301.16 K | 189.7
303.16 K | 190.4
305.15 K | 191.1
307.15 K | 191.8
309.16 K | 192.6
311.16 K | 193.2
313.15 K | 193.9
315.15 K | 194.6
317.14 K | 195.2
319.16 K | 196
321.15 K | 196.5
323.15 K | 197.3
325.15 K | 198

CC(C)OC(C)C [diisopropyl ether]
Details | molar heat capacity [J/K/mol]
277.17 K | 207.7
279.16 K | 208.5
281.15 K | 209.4
283.14 K | 210.4
285.16 K | 211.3
287.16 K | 212.2
289.15 K | 213.1
291.17 K | 214
293.15 K | 214.8
295.16 K | 215.5
297.16 K | 216.3
299.16 K | 217.2
301.16 K | 218
303.15 K | 218.7
305.14 K | 219.5
307.14 K | 220.3
309.16 K | 221
311.15 K | 222
313.15 K | 222.7
315.15 K | 223.6
317.17 K | 224.4
319.16 K | 225.1
321.15 K | 225.9
323.14 K | 226.7
325.14 K | 227.4
327.13 K | 228.3
329.16 K | 229
331.15 K | 229.9
333.15 K | 230.5
335.14 K | 231.4
337.14 K | 232.2

CCC(C)(C)OC [2-methoxy-2-methylbutane]
Details | molar heat capacity [J/K/mol]
279.16 K | 206.8
281.15 K | 207.7
283.16 K | 208.5
285.16 K | 209.3
287.16 K | 210.2
289.16 K | 211
291.17 K | 211.7
293.15 K | 212.5
295.15 K | 213.5
297.16 K | 214.5
299.16 K | 215.3
301.14 K | 216.1
303.14 K | 216.9
305.15 K | 217.8
307.15 K | 218.3
309.15 K | 219.1
311.16 K | 220.1
313.16 K | 220.6
315.13 K | 221.3
317.13 K | 222.1
319.14 K | 222.8
321.14 K | 223.5
323.14 K | 224.5
325.15 K | 225
327.16 K | 225.7
329.16 K | 226.7
331.17 K | 227.4
333.13 K | 228.1
335.14 K | 228.9
337.14 K | 229.7
339.15 K | 230.4
341.16 K | 231
343.17 K | 231.9
345.14 K | 232.6
347.14 K | 233.5
349.15 K | 234.3
351.15 K | 234.9
353.16 K | 235.7
355.14 K | 236.4

CCOC(C)(C)C [2-ethoxy-2-methylpropane]
Details | molar heat capacity [J/K/mol]
277.14 K | 211.4
281.17 K | 213.3
283.15 K | 214.2
285.16 K | 215.2
287.15 K | 216
289.16 K | 216.9
291.14 K | 217.7
293.14 K | 218.5
295.15 K | 219.3
297.14 K | 220.1
299.15 K | 220.9
301.14 K | 221.7
303.16 K | 222.6
305.14 K | 223.3
307.15 K | 224.2
309.14 K | 225.3
311.15 K | 225.9
313.14 K | 226.7
315.16 K | 227.6
317.14 K | 228.6
319.15 K | 229.5
321.14 K | 230.1
323.15 K | 231
325.14 K | 231.7
327.16 K | 232.6
329.15 K | 233.3
331.16 K | 234.2
333.15 K | 235.1
335.16 K | 235.9
338.16 K | 237.1
339.14 K | 237.4
341.15 K | 238.1
